Target: T1, Dual specificity protein kinase TTK (Homo sapiens, UniProt P33981)
T1 sequence (P33981 whole entry): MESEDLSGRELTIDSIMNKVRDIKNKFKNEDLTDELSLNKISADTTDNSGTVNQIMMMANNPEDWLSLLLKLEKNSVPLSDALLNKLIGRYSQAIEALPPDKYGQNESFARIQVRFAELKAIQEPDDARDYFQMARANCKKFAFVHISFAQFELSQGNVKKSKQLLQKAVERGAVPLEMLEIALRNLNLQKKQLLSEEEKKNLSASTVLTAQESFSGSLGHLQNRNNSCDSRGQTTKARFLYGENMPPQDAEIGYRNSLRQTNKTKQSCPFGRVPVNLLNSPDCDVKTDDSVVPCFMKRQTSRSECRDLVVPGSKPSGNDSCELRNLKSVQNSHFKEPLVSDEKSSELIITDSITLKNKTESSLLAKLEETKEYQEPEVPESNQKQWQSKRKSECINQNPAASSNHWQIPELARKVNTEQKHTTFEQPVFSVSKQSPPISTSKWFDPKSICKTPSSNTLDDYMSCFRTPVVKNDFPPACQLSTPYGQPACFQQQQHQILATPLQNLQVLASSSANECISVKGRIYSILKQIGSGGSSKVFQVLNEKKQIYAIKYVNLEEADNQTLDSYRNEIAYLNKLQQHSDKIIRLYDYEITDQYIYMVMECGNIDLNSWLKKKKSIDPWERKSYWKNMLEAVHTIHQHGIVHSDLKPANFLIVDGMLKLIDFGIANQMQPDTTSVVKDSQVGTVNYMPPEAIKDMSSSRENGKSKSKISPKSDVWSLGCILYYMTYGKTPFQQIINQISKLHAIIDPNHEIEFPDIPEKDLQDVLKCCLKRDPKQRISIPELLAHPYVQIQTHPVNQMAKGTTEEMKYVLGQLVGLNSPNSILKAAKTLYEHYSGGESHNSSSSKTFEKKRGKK
Experiment: Kinase Assay: For the assay 50 nl of a 100-fold concentrated solution of the test compound in DMSO was pipetted into a black low volume 384 well microtiter plate (Greiner Bio-One, Frickenhausen, Germany), 2 ul of a solution of Mps-1 in assay buffer [0.1 mM sodium-ortho-vanadate, 10 mM MgCl2, 2 mM DTT, 25 mM Hepes pH 7.7, 0.05% BSA, 0.001% Pluronic F-127] were added and the mixture was incubated for 15 min at 22° C. to allow pre-binding of the test compounds to Mps-1 before the start of the kinase reaction. Then the kinase reaction was started by the addition of 3 ul of a solution of 16.7 adenosine-tri-phosphate (ATP, 16.7 uM=>final conc. in the 5 ul assay volume is 10 uM) and peptide substrate (1.67 uM=>final conc. in the 5 ul assay volume is 1 uM) in assay buffer and the resulting mixture was incubated for a reaction time of 60 min at 22° C. The concentration of Mps-1 in the assay was adjusted to the activity of the enzyme lot and was chosen appropriate to have the assay in the linear range, typical enzyme concentrations were in the range of about 1 nM (final conc. in the 5 ul assay volume). […]

CSc1nc(C#CCO)cn2c(-c3ccc(-c4cnc(C5CC5)[nH]4)cc3)cnc12
IC50: 151 nM

CSc1nc(-c2ccccc2)cn2c(-c3ccc(C(=O)NC4CC4)cc3)cnc12
IC50: 25.7 nM

Source: ChEMBL document CHEMBL3886974, “Imidazopyrazines” (2016)
